Results on 5 molecules are retold here after ChEMBL document CHEMBL2016485, “Design and optimization of quinazoline derivatives as melanin concentrating hormone receptor 1 (MCHR1) antagonists: part 2” (Bioorg Med Chem Lett, 2012).

As a reminder, the AUC is concentration integrated over time. Higher therefore signals more exposure. The term Cmax denotes the peak of the concentration-time curve. As usually defined, the solubility is how much of the substance goes into solution per volume. High values mean much dissolved substance, low ones little dissolved substance. A word on the AUC(0-t): it is the area under the concentration-time curve up to a stated or last time point. A low value points to less exposure.

In brackets after ≈: the same amount, converted by molar mass.

Series [1] is described as follows: AUC at steady state in diet-induced obese C57BL/6J mouse model plasma at 30 mg/kg, po bid dosed through micronized suspension for 14 days measured at day 14. Type of series: ADME, organism-based. The arrangement: dose 30 mg/kg, route oral.
The nature of series [2]: AUC at steady state in diet-induced obese C57BL/6J mouse model brain at 30 mg/kg, po bid dosed through micronized suspension for 14 days measured at day 14. Type of series: ADME, organism-based. The arrangement: dose 30 mg/kg, route oral.
A short description of series [3]: Cmax at steady state in diet-induced obese C57BL/6J mouse model plasma at 30 mg/kg, po bid dosed through micronized suspension for 14 days measured at day 14. Type of series: ADME, organism-based. The arrangement: dose 30 mg/kg, route oral.
The nature of series [4]: Cmax at steady state in diet-induced obese C57BL/6J mouse model brain at 30 mg/kg, po bid dosed through micronized suspension for 14 days measured at day 14. Type of series: ADME, organism-based. Also on record: dose 30 mg/kg, route oral.
Series [5] can be described thus: AUC at steady state in diet-induced obese C57BL/6J mouse model plasma at 100 mg/kg, po qd dosed through CMC/Tween 80 suspension for 14 days measured at day 14. It is filed as ADME, organism-based. The arrangement: dose 100 mg/kg, route oral.
The nature of series [6]: AUC at steady state in diet-induced obese C57BL/6J mouse model brain at 100 mg/kg, po qd dosed through CMC/Tween 80 suspension for 14 days measured at day 14. Also on record: dose 100 mg/kg, route oral. It is filed as ADME, organism-based.
Series [7] in a line: Cmax at steady state in diet-induced obese C57BL/6J mouse model plasma at 100 mg/kg, po qd dosed through CMC/Tween 80 suspension for 14 days measured at day 14. It is filed as ADME, organism-based. The arrangement: dose 100 mg/kg, route oral.
Series [8] can be described thus: Cmax at steady state in diet-induced obese C57BL/6J mouse model brain at 100 mg/kg, po qd dosed through CMC/Tween 80 suspension for 14 days measured at day 14. The arrangement: dose 100 mg/kg, route oral. It is filed as ADME, organism-based.
The nature of series [9]: Solubility in fasted state simulated intestinal fluid at pH 6.5 at 0.5 hrs. It is filed as physicochemical.
Series [10] in a line: AUC (0 to 24 hrs) in mouse at 30 mg/kg, po. Type of series: ADME, organism-based. The arrangement: time < 24 hr, dose 30 mg/kg, route oral. To be noted: plasma.
A short description of series [11]: AUC (0 to 24 hrs) in rat at 30 mg/kg, po. It is filed as ADME, organism-based. The arrangement: time < 24 hr, dose 30 mg/kg, route oral. To be noted: plasma.
Series [12] can be described thus: Cmax in mouse at 30 mg/kg, po relative to initial plasma concentration. Also on record: dose 30 mg/kg, route oral. It is filed as ADME, organism-based.
Series [13] is described as follows: Cmax in rat at 30 mg/kg, po relative to initial plasma concentration. It is filed as ADME, organism-based. Also on record: dose 30 mg/kg, route oral.
Series [14] is described as follows: AUC (0 to 24 hrs) in dog at 5 mg/kg, po. It is filed as ADME, organism-based, Canis lupus familiaris. Also on record: time < 24 hr, dose 5 mg/kg, route oral. To be noted: plasma.
Series [15] in a line: AUC (0 to 24 hrs) in dog at 6 mg/kg, iv. It is filed as ADME, organism-based, Canis lupus familiaris. The arrangement: time < 24 hr, dose 6 mg/kg, route intravenous. To be noted: plasma.
Series [16] can be described thus: Cmax in dog at 5 mg/kg, po relative to initial plasma concentration. Type of series: ADME, organism-based, Canis lupus familiaris. The arrangement: dose 5 mg/kg, route oral.
A short description of series [17]: Cmax in dog at 6 mg/kg, iv relative to initial plasma concentration. Type of series: ADME, organism-based, Canis lupus familiaris. Also on record: dose 6 mg/kg, route intravenous.
Series [18] can be described thus: Cmax in beagle dog at 6 mg/kg, iv. It is filed as ADME, organism-based, Canis lupus familiaris. Also on record: dose 6 mg/kg, route intravenous. To be noted: in vivo.

Consider `Cc1nc(N2CCC(N3CCCC3=O)CC2)nc2ccc(NC(=O)/C=C/c3ccc(OC(F)(F)F)cc3)cc12`, for which the values for the AUC at 336 h in [1] and in [2] were 385 µM·h and 95.1 µM·h, respectively. Further, the Cmax in series [3] came out at 17.7 µM; in series [4], 5.6 µM.

For `Cc1nc(N2CCC(O)(C3CC3)CC2)nc2ccc(NC(=O)/C=C/c3ccc(Cl)cc3)cc12`, the AUC at 336 h in series [5] is 104 µM·h; in [6], 30.2 µM·h. The Cmax is 5.9 µM in series [7], 2.1 µM in [8], 2.1 µM in series [12] and 2.4 µM in series [13]. For the same molecule, in [9], the solubility at 0.5 h is 1.7 µM (≈ 0.787 µg/mL). Further, the AUC(0-t) at 24 h worked out at 33.4 µM·h in series [10] and 26.6 µM·h in series [11].

On to `Cc1nc(N2CCC(N3CCOCC3=O)CC2)nc2ccc(NC(=O)/C=C/c3ccc(OC(F)(F)F)cc3)cc12`, for which the AUC at 336 h in series [1] turned out to be 312 µM·h; in series [2], 104 µM·h. Also, the values for the Cmax in series [3] and in [4] were 16.5 µM and 6.3 µM, respectively.

Consider `CS(=O)(=O)O.Cc1nc(N2CCC(O)(C3CC3)CC2)nc2ccc(NC(=O)/C=C/c3ccc(Cl)cc3)cc12`, for which the concentration in solution in series [9] (solubility at 0.5 h) was 11.2 µM. The figures for the AUC(0-t) at 24 h in [11], in [14] and in series [15] were 79.6 µM·h, 37.7 µM·h and 43.5 µM·h, respectively. Moreover, the Cmax in series [13] was 7.8 µM; in series [16] it was 2.5 µM; in series [17], 9.9 µM; in series [18] it was 6.4 µM.

`Cc1nc(N2CCC(N3CCOC3=O)CC2)nc2ccc(NC(=O)/C=C/c3ccc(OC(F)(F)F)cc3)cc12`: the values for the AUC at 336 h in series [1] and in series [2] were 284 µM·h and 67.6 µM·h, respectively. In addition, the figures for the Cmax in series [3] and in series [4] were 12.7 µM and 3.7 µM, respectively.
